In ChEMBL document CHEMBL1155765, “Haterumaimides F-I, four new cytotoxic diterpene alkaloids from an ascidian Lissoclinum species” (J Nat Prod, 2001):

Legend:
[1] = Toxicity against Sea urchin fertilized eggs assessed as inhibition of cell division at 5 ppm; design: species or system Egg; details: echinoidea
P388 = test: Cytotoxicity against mouse P388 cells; assay type: functional, cell-based

CC1(C)C[C@H](Cl)C[C@]2(C)[C@H]3C[C@@H]([C@H]4CC(=O)NC4=O)O[C@@]3(C)CC(=O)[C@@H]12 [HATERUMAIMIDE I]
inhibition at 5 ppm [1]: 80%
IC50 (P388): > 10 µg/mL
